In paper PMC4114533, “Synthesis, Anti-tubulin and Antiproliferative SAR of Steroidomimetic Dihydroisoquinolinones” (Chemmedchem, 2014):
Like-named read-outs stand apart in the source and are kept apart here.

How the values were obtained:
Bovine brain tubulin [1] = system: Bovine brain tubulin; parameters: method as in PMID 20225862; details: data taken from the literature ref 3; read-out: TP IC50 (tubulin polymerisation); cited from earlier work
Bovine brain tubulin [2] = biological target: T1, Bovine brain tubulin (Bos taurus, UniProt P81947+Q6B856); parameters: method as in PMID 20225862; details: data taken from the literature ref 3; cited from earlier work
T1 construct: Bovine brain tubulin, prepared as described previously,[16] was used in studies presented here; from tissue; host or cells: bovine brain
T1 sequence (Q6B856 whole entry): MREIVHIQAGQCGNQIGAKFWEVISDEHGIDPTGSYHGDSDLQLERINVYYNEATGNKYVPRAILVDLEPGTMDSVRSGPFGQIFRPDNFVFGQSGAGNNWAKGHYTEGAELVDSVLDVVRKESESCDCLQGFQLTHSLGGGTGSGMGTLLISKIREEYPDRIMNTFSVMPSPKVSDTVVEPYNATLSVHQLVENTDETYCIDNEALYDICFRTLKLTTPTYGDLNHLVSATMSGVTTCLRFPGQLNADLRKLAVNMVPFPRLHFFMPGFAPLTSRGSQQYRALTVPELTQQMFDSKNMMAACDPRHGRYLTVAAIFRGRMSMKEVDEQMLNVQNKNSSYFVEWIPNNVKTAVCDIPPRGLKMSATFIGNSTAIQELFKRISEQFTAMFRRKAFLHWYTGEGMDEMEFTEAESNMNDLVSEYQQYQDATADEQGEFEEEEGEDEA
T1 sequence (P81947 whole entry): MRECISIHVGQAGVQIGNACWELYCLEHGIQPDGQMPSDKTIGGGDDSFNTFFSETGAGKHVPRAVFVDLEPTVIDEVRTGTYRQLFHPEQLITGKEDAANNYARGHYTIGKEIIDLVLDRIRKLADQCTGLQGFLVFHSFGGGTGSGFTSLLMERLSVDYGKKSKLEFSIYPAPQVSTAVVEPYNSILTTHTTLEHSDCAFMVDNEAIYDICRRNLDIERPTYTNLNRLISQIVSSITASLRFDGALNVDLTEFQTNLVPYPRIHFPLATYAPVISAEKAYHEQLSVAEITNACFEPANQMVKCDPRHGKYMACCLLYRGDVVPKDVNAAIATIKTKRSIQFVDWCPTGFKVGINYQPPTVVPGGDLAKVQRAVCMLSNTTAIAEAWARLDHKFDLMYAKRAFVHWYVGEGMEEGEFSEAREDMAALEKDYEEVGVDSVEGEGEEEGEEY

[3] = system: DU-145 human prostate cancer cells; assay: Antiproliferative assay (WST-1, 96 h), DU-145; assay type: cell-based; details: for GI50: Homo sapiens, DU-145 cells, 96 h, WST-1, mean of three determinations; for fold more active than the 3′-methoxy derivatives: vs 3′-methoxy derivatives 16 b and 17 b
Description: (§1) Cell lines: DU-145 (brain metastasis carcinoma of the prostate) and MDA MB-231 (metastatic pleural effusion of breast adenocarcinoma) established human cell lines were obtained from ATCC Global Bioresource Center. Cells were maintained in a 5 % CO2 humidified atmosphere at 37 °C in RPMI-1640 medium, supplemented with 10 % fetal bovine serum, penicillin, (100 U mL^−1), and streptomycin (0.1 mg mL^−1). The effect of drugs on tubule formation was assessed using an angiogenesis kit (TCS-Cellworks).
(§2) Antiproliferative assays: DU-145 and MDA MB-231 cells were seeded into 96-well microtitre plates (5000 cells per well) and treated with compound (10^−9–10^−4 M) or with vehicle control. At 96 h post-treatment, live cell counts were determined by WST-1 cell proliferation assay (Roche, Penzberg, Germany), as per the manufacturer’s instructions. Viability results were expressed as a percentage of mean control values resulting in the calculation of the 50 % growth inhibition (GI50). All experiments were performed in triplicate.

[4] = system: MDA MB-231 human breast cancer cells; assay: Antiproliferative assay (WST-1, 96 h), MDA MB-231; assay type: cell-based; details: MDA MB-231 cells, WST-1, mean of three determinations
Description: as §1, §2

[5] = system: HUVECs within a matrix of human diploid fibroblasts of dermal origin; assay: In vitro model of angiogenesis (tubule formation, co-culture); assay type: cell-based; details: 25 nM and 50 nM, VEGF-stimulated, quantified after 11 days
Description: Compounds 16 f and 17 f were also assayed for anti-angiogenic activity in an in vitro model of angiogenesis, wherein endothelial cells co-cultured in a matrix of human dermal fibroblasts are used to assess anti-angiogenic potential (Figure 2). When stimulated with VEGF the endothelial cells proliferate and migrate through the matrix to form tubule-like structures. The extent of tubule formation was quantified after 11 days as described elsewhere.[14] […] Quantification carried out by calculating total pixel length reflects the lack of tubule formation.
Cell lines: DU-145 (brain metastasis carcinoma of the prostate) and MDA MB-231 (metastatic pleural effusion of breast adenocarcinoma) established human cell lines were obtained from ATCC Global Bioresource Center. […] The effect of drugs on tubule formation was assessed using an angiogenesis kit (TCS-Cellworks).
Anti-angiogenic assays: HUVECs were cultured in a 24-well plate within a matrix of human diploid fibroblasts of dermal origin in optimised medium supplied by the company. […] The extent of tubule formation was then quantified, either manually by eye or using free software available through the National Institutes of Health website (NIH image [Mac version] from http://rsb.info.nih.gov/nih-image/download.html). […] After correcting for background the software counted the number of pixels representing tubules. […]

Bovine brain tubulin [6] = assay: Tubulin polymerisation (assembly) assay; assay type: biochemical; details: 10 μM tubulin, mean ±SD of at least two determinations; read-out: TP IC50 (tubulin polymerisation)
Description: (§3) Tubulin assays: Bovine brain tubulin, prepared as described previously,[16] was used in studies presented here. Assembly IC50 values were determined as described in detail elsewhere.[17] Briefly, 1.0 mg mL^−1 (10 μM) tubulin was pre-incubated without GTP with varying compound concentrations for 15 min at 30 °C. Reaction mixtures were placed on ice, and GTP (final concentration, 0.4 mM) was added. The reaction mixtures were transferred to cuvettes, held at 0 °C in a recording spectrophotometer. Baselines were established at 0 °C, and increase in turbidity was followed for 20 min following a rapid (<30 s) jump to 30 °C. Compound concentrations required to decrease the turbidity increase by 50 % were determined. The method for measuring inhibition of the binding of [^3H]colchicine to tubulin was described in detail previously.[18] Reaction mixtures contained 0.1 mg mL^−1 (1.0 μM) tubulin, 5.0 μM [^3H]colchicine, and potential inhibitor at 5.0 μM. […] A minimum of two experiments were performed with each compound.

Bovine brain tubulin [7] = biological target: T1, Bovine brain tubulin; assay: Inhibition of [3H]colchicine binding to tubulin; details: mean ±SD; for inhibition at 5 µM: 5 μM inhibitor, 1.0 μM tubulin, 5.0 μM [3H]colchicine, read-out: CB [% inhib.] 5 μM inhibitor; for inhibition at 1 µM: 1 μM inhibitor, read-out: CB [% inhib.] 1 μM inhibitor
Description: as §3

carbonic anhydrase = assay: Carbonic anhydrase inhibition; assay type: biochemical
[8] = system: DU-145 human prostate cancer cells; parameters: method as in PMID 24124095; details: DU-145 cells; data taken from the literature ref 8; cited from earlier work
[9] = system: MDA MB-231 human breast cancer cells; parameters: method as in PMID 24124095; details: MDA MB-231 cells; data taken from the literature ref 8; cited from earlier work
[10] = parameters: method as in PMID 22247790, PMID 24124095; details: THIQ series, cell line not printed ref 7, 8; cited from earlier work

Structure (SMILES)	GI50 [3] [µM]	GI50 [4] [µM]	melting point [°C]	other results
COc1cc2c(cc1OS(N)(=O)=O)CC[C@@H]1[C@@H]2CC[C@]2(C)[C@@H](OS(N)(=O)=O)CC[C@@H]12 [1 a]	–	–	–	IC50 (Bovine brain tubulin [1]): 2.2 ± 0.3 µM; CB [% inhib.] 5 μM inhibitor (Bovine brain tubulin [2]): 28±3%
COc1cc2c(cc1OS(N)(=O)=O)CC[C@@H]1[C@@H]2CC[C@]2(C)[C@@H](CC#N)CC[C@@H]12 [1 b]	–	–	–	IC50 (Bovine brain tubulin [1]): 1.3 ± 0.08 µM; CB [% inhib.] 5 μM inhibitor (Bovine brain tubulin [2]): 78±0.9%
CCc1cc2c(cc1OS(N)(=O)=O)CC[C@@H]1[C@@H]2CC[C@]2(C)[C@@H](OS(N)(=O)=O)CC[C@@H]12 [1 c]	–	–	–	IC50 (Bovine brain tubulin [1]): 1.3 ± 0.01 µM; CB [% inhib.] 5 μM inhibitor (Bovine brain tubulin [2]): 45±4%
COc1ccc(S(=O)(=O)N2CCc3cc(O)c(OC)cc3C2=O)cc1 [11 c, 6-Hydroxy-7-methoxy-2-((4-methoxyphenyl)sulfonyl)-3,4-dihydroisoquinolin-1(2H)-one]	> 100	> 100	202 to 204	–
COC(=O)c1ccccc1S(=O)(=O)N1CCc2cc(O)c(OC)cc2C1=O [11 e, Methyl 2-((6-hydroxy-7-methoxy-1-oxo-3,4-dihydroisoquinolin-2(1H)-yl)sulfonyl)benzoate]	> 100	> 100	236 to 239	–
COc1cc2c(cc1OS(N)(=O)=O)CCN(S(=O)(=O)c1ccccc1OC)C2=O [12 a, 7-Methoxy-2-((2-methoxyphenyl)sulfonyl)-6-(sulfamoyloxy)-3,4-dihydroisoquinolin-1(2H)-one]	> 100	> 100	195 to 197	–
COc1cc2c(cc1OS(N)(=O)=O)CCN(S(=O)(=O)c1cccc(Cl)c1)C2=O [12 d, 2-((3-Chlorophenyl)sulfonyl)-7-methoxy-6-(sulfamoyloxy)-3,4-dihydroisoquinolin-1(2H)-one]	> 100	> 100	170 to 173	–
COc1ccc(C(=O)N2CCc3cc(OS(N)(=O)=O)c(OC)cc3C2=O)cc1 [17 d, 2-(4-Methoxybenzoyl)-7-methoxy-6-sulfamoyloxy-3,4-dihydroisoquinolin-1(2H)-one]	> 100	–	171 to 172	antiproliferative activity (in words) ([3]; in vitro antiproliferative activity, result in words): inactive
COc1cc2c(cc1O)CCN(C(=O)c1cc(OC)c(OC)c(OC)c1)C2 [18 c]	–	–	–	GI50 [8]: 0.921 µM; GI50 [9]: 0.733 µM
COc1cc2c(cc1OS(N)(=O)=O)CCN(C(=O)c1cc(OC)c(OC)c(OC)c1)C2 [19 c]	–	–	–	GI50 [8]: 1.81 µM; GI50 [9]: 1.72 µM
COc1ccc(/C=C\c2cc(OC)c(OC)c(OC)c2)cc1O [CA-4, combretastatin A-4, reference compound]	–	–	–	inhibition at 1 µM (Bovine brain tubulin [7]): 90 ± 0.2%
COc1cccc(CN2CCc3cc(OS(N)(=O)=O)c(OC)cc3C2)c1 [compound 2]	–	–	–	GI50 [10]: 2.1 µM

Further lines, with some results ahead:

GI50 [3] [µM]	GI50 [4] [µM]	melting point [°C]	Structure (SMILES)	other results
> 100	> 100	178 to 181	COc1cc2c(cc1O)CCN(S(=O)(=O)c1cccc(Cl)c1)C2=O [11 d, 6-Hydroxy-7-methoxy-2-((3-chlorophenyl)sulfonyl)-3,4-dihydroisoquinolin-1(2H)-one]	–
> 100	> 100	164 to 166	COc1cccc(S(=O)(=O)N2CCc3cc(OS(N)(=O)=O)c(OC)cc3C2=O)c1 [12 b, 7-Methoxy-2-((3-methoxyphenyl)sulfonyl)-6-(sulfamoyloxy)-3,4-dihydroisoquinolin-1(2H)-one]	–
> 100	13	181 to 186	COC(=O)c1ccccc1S(=O)(=O)N1CCc2cc(OS(N)(=O)=O)c(OC)cc2C1=O [12 e, Methyl 2-((7-methoxy-1-oxo-6-(sulfamoyloxy)-3,4-dihydroisoquinolin-2(1H)-yl)sulfonyl)benzoate]	–
2.39	1.6	199 to 200	COc1cc2c(cc1O)CCN(C(=O)c1ccc(OC)c(OC)c1)C2=O [16 e, 6-Hydroxy-2-(3,4-dimethoxybenzoyl)-7-methoxy-3,4-dihydroisoquinolin-1(2H)-one]	–
0.215	0.161	–	COc1cc(OC)cc(C(=O)N2CCc3cc(O)c(OC)cc3C2=O)c1 [16 f, 6-Hydroxy-2-(3,5-dimethoxybenzoyl)-7-methoxy-3,4-dihydroisoquinolin-1(2H)-one]	fold more active than the 3′-methoxy derivatives [3]: > 10 fold; formation of tubule-like structures [5]: almost completely inhibits; IC50 (Bovine brain tubulin [6]): 1.5 ± 0.1 µM; inhibition at 5 µM (Bovine brain tubulin [7]): 81 ± 0.7%
25	> 100	171 to 172	COc1cc2c(cc1OS(N)(=O)=O)CCN(C(=O)c1cccc(C#N)c1)C2=O [17 c, 2-(3-Cyanobenzoyl)-7-methoxy-6-sulfamoyloxy-3,4-dihydroisoquinolin-1(2H)-one]	–
0.179	0.118	–	COc1cc(OC)cc(C(=O)N2CCc3cc(OS(N)(=O)=O)c(OC)cc3C2=O)c1 [17 f, 2-(3,5-Dimethoxybenzoyl)-7-methoxy-6-sulfamoyloxy-3,4-dihydroisoquinolin-1(2H)-one]	fold more active than the 3′-methoxy derivatives [3]: > 10 fold; IC50 (carbonic anhydrase): 0.89 µM; formation of tubule-like structures [5]: almost completely inhibits; IC50 (Bovine brain tubulin [6]): 1.3 ± 0.01 µM; inhibition at 1 µM (Bovine brain tubulin [7]): 65 ± 3%; inhibition at 5 µM (Bovine brain tubulin [7]): 89 ± 0.1%
0.166	0.275	–	COc1cc2c(cc1OS(N)(=O)=O)CCN(C(=O)c1cc(OC)c(OC)c(OC)c1)C2=O [17 g, 7-Methoxy-2-(3,4,5-trimethoxybenzoyl)-6-sulfamoyloxy-3,4-dihydroisoquinolin-1(2H)-one]	IC50 (Bovine brain tubulin [6]): 1.2 ± 0.03 µM; inhibition at 5 µM (Bovine brain tubulin [7]): 85 ± 2%
